According to PMC4865845, “A human genome-wide loss-of-function screen identifies effective chikungunya antiviral drugs” (Nature Communications, 2016):

Tested on: CHIKV
Assay type: cell-based, chikungunya virus

Q: With “Hs_CSNK1A1_5 (sense AGGGCTAAAGGCTGCAACAAA; chemistry not given here)” as the substance, how does the Score_si1 read?
A: 2.25

Q: “Hs_CUL4A_1 (sense ACCCATATTATTAGTGATAAA; chemistry not given here) [reference compound]” was tested. Which Score_si1 did it give?
A: -2.33

Q: “Hs_D21S2056E_1 (CAGGGAATTCAGCTCCAGTAA; chemistry not given here)” was tested. Which Score_si1 did it give?
A: 2.83

Q: “Hs_DC-UbP_1 (AAGGCAGTTAAGAAATAGATA; chemistry not given here)” was tested. Which Score_si2 did it give?
A: 1.13

Q: “Hs_DC-UbP_2 (CAGGCTTTGAGACTCATGTAA; chemistry not given here)” was tested. Which Score_si1 did it give?
A: 1.59

Q: How did the Score_si3 turn out when “Hs_DC-UbP_5 (AGGCAGTTAAGAAATAGATAA; chemistry not given here)” was run?
A: 0.86

Q: How did the Score_si1 turn out when “Hs_DHX38_1 (CAGGATTTGGAAATAAATTTA; chemistry not given here)” was run?
A: 2.48

Q: With “Hs_DHX38_2 (CAGCAGTGAATTTGCAAAGAA; chemistry not given here)” as the substance, how does the Score_si4 read?
A: 1.02

Q: For “Hs_DKFZP434B168_1 (CTGAAATTACTTGCTAATAAA; chemistry not given here)”, which Score_si3 is on record?
A: 1.61

Q: With “Hs_DKFZP564C186_1 (AAGGATGAGGACAGGAAGCAA; chemistry not given here)” as the substance, how does the Score_si1 read?
A: 2.71

Q: “Hs_DKFZP564C186_2 (CACGGACAGTGCTGCATTCAA; chemistry not given here)” was tested. Which Score_si3 did it give?
A: 1.17

Q: For “Hs_DKFZp547E052_2 (CAGGAGATAGGACATCATTTA; chemistry not given here)”, which Score_si1 is on record?
A: 2.29

Q: For “Hs_DLD_2 (CCCACTTATTCAAACAGAATA; chemistry not given here)”, which Score_si4 is on record?
A: 0.87

Q: For “Hs_DLD_3 (CAGGTGGAATTGCCCACTTAT; chemistry not given here)”, which Score_si1 is on record?
A: 2.15

Q: How did the Score_si2 turn out when “Hs_DLD_4 (TCGCTTGAATTTAGACAAGAT; chemistry not given here)” was run?
A: 1.23

Q: How did the Score_si1 turn out when “Hs_DMAP1_1 (GCGGATGTACGGGACATTCTA; chemistry not given here)” was run?
A: 2.23

Q: How did the Score_si3 turn out when “Hs_DOK6_1 (TACGCCAAACCTGGATATTTA; chemistry not given here) [reference compound]” was run?
A: -0.32

Q: For “Hs_DOK6_5 (CTGAGCAACATGAAAGATTAA; chemistry not given here) [reference compound]”, which Score_si1 is on record?
A: -2.96

Q: “Hs_E2F3_1 (TTGCGTTACTTTAAGTACTAA; chemistry not given here) [reference compound]” was tested. Which Score_si1 did it give?
A: -2.09

Q: With “Hs_E2F3_5 (TACAGTATTTGCGTTACTTTA; chemistry not given here) [reference compound]” as the substance, how does the Score_si2 read?
A: -1.78

Q: How did the Score_si3 turn out when “Hs_EEF1A1_1 (CTGGTTAATGATAACAATGCA; chemistry not given here)” was run?
A: 2.24

Q: “Hs_EEF1A1_4 (CAACGTTACAACGGAAGTAAA; chemistry not given here)” was tested. Which Score_si1 did it give?
A: 2.64

Q: Which Score_si1 does the source give for “Hs_EEF2_2 (TGCCGTTTCTTTCAATATTTA; chemistry not given here)” here?
A: 2.07

Q: Which Score_si1 does the source give for “Hs_EIF2B2_2 (CAACATCATTGAGGCGATTAA; chemistry not given here)” here?
A: 2.1

Q: “Hs_EIF2B5_1 (CTTGTATATGTTAATATTAAA; chemistry not given here)” was tested. Which Score_si4 did it give?
A: 1.02

Q: How did the Score_si1 turn out when “Hs_EIF2B5_2 (CAAAGTGAAGATGAAAGGTTA; chemistry not given here)” was run?
A: 1.62

Q: For “Hs_ENTPD2_1 (CACGTCCATGTTTATCTACAA; chemistry not given here)”, which Score_si2 is on record?
A: 1.25

Q: How did the Score_si1 turn out when “Hs_ENTPD2_2 (CGGCGTGATCTTCCAGAAGAA; chemistry not given here)” was run?
A: 1.32

Q: “Hs_EP400_1 (CAGAATGATTTGGACATTGAA; chemistry not given here)” was tested. Which Score_si1 did it give?
A: 2.29

Q: Which Score_si4 does the source give for “Hs_EXOSC1_1 (TTCATTCTCTTGAGTAATAAA; chemistry not given here) [reference compound]” here?
A: 0.51

Q: With “Hs_EXOSC1_2 (AAGCAGAGAAAGACATCTAAA; chemistry not given here) [reference compound]” as the substance, how does the Score_si1 read?
A: -2.21

Q: “Hs_EZH2_6 (CAGGATGGTACTTTCATTGAA; chemistry not given here)” was tested. Which Score_si1 did it give?
A: 1.77

Q: “Hs_EZH2_7 (AACCATGTTTACAACTATCAA; chemistry not given here)” was tested. Which Score_si4 did it give?
A: 0.98

Q: With “Hs_F25965_1 (CAGCGAGAACACGCCACTGTA; chemistry not given here)” as the substance, how does the Score_si1 read?
A: 1.49

Q: With “Hs_F25965_2 (ACCAGCTTCGTTACTCAGAAA; chemistry not given here)” as the substance, how does the Score_si3 read?
A: 1.05

Q: “Hs_FASN_3 (CCGCTACATGGCCCAAGGGAA; chemistry not given here)” was tested. Which Score_si1 did it give?
A: 2.39

Q: With “Hs_FBXO42_3 (CAGGCTGGGATCAAATCTCCA; chemistry not given here)” as the substance, how does the Score_si1 read?
A: 2.82

Q: How did the Score_si1 turn out when “Hs_FCGRT_1 (CTCGTCGTCACTAACAGTCAA; chemistry not given here)” was run?
A: 2.15

Q: For “Hs_FCGRT_2 (AAGGATGTAAATGTGATTCCA; chemistry not given here)”, which Score_si2 is on record?
A: 1.36

Q: For “Hs_FLJ00193_2 (GAGCAGCTACATGGAGATGAA; chemistry not given here)”, which Score_si1 is on record?
A: 2.41

Q: “Hs_FLJ10134_1 (CTGATGTTATATGACTATAAA; chemistry not given here)” was tested. Which Score_si1 did it give?
A: 1.71

Q: How did the Score_si2 turn out when “Hs_FLJ10134_2 (CTCCTTGACCATGGAATTATA; chemistry not given here)” was run?
A: 1.53

Q: “Hs_FLJ11752_1 (sense CTGGATATTACTAGAGTTGTA; chemistry not given here)” was tested. Which Score_si1 did it give?
A: 2.31

Q: With “Hs_FLJ20257_2 (sense CACCAAGTGGGTGCATCTGAA; chemistry not given here)” as the substance, how does the Score_si1 read?
A: 2.26

Q: “Hs_FLJ20530_2 (sense TTGACTTATCTTCATCATAAA; chemistry not given here)” was tested. Which Score_si1 did it give?
A: 2.95

Q: Which Score_si4 does the source give for “Hs_FLJ31164_2 (sense CCAGCTGAGCACCCGAATAAA; chemistry not given here)” here?
A: 0.41

Q: Which Score_si1 does the source give for “Hs_FLJ31164_3 (sense GAAGCTGTTGATAGTATTGAA; chemistry not given here)” here?
A: 1.5

Q: For “Hs_FLJ31164_4 (sense GAGCAACTTGCTGGATGTGAA; chemistry not given here)”, which Score_si2 is on record?
A: 1.07

Q: “Hs_FLT4_4 (sense CGCGCTGATGTCGGAGCTCAA; chemistry not given here)” was tested. Which Score_si1 did it give?
A: 1.18

Q: For “Hs_FLT4_8 (sense CACCGTGTGGGCTGAGTTTAA; chemistry not given here)”, which Score_si2 is on record?
A: 1.07

Q: “Hs_FTSJ2_1 (sense CAGAGGAATTCCAGAATGTAA; chemistry not given here)” was tested. Which Score_si2 did it give?
A: 1.91

Q: Which Score_si3 does the source give for “Hs_FTSJ2_2 (sense CAGAATGTAAGGATCATCAAA; chemistry not given here)” here?
A: 1.86

Q: “Hs_FXC1_2 (sense CAAGTATTTGTTGGTTCATAA; chemistry not given here)” was tested. Which Score_si1 did it give?
A: 2.83

Q: How did the Score_si1 turn out when “Hs_GAP43_1 (sense CCGGCTCAGCTGAGACAGAAA; chemistry not given here)” was run?
A: 2.5

Q: For “Hs_GBF1_1 (sense AAGAATATTTACATCATTCAA; chemistry not given here)”, which Score_si4 is on record?
A: 1.75

Q: Which Score_si1 does the source give for “Hs_GCN1L1_2 (sense CAGGTTCAGCTGGAATGTGAA; chemistry not given here)” here?
A: 2.09

Q: Which Score_si1 does the source give for “Hs_GFRA4_2 (sense CAGGTCAGAGACCATCCAGAA; chemistry not given here)” here?
A: 1.82

Q: How did the Score_si3 turn out when “Hs_GFRA4_4 (sense CAGGAGGCATCTTGGTTGTAA; chemistry not given here)” was run?
A: 1.57

Q: For “Hs_GLTSCR2_4 (sense CAAGTTCAAACGCAAGTACAA; chemistry not given here)”, which Score_si2 is on record?
A: 1.95

Q: For “Hs_GLTSCR2_6 (sense CCGGAGCTTCCTACAATCCAT; chemistry not given here)”, which Score_si3 is on record?
A: 1.7

Q: For “Hs_GNB2L1_2 (sense CAGATTGTCTCTGGATCTCGA; chemistry not given here)”, which Score_si1 is on record?
A: 2.65

Q: For “Hs_GNB2L1_5 (sense TTGGCACACGCTAGAAGTTTA; chemistry not given here)”, which Score_si4 is on record?
A: 1.27

Q: Which Score_si2 does the source give for “Hs_GNB2L1_6 (sense AAGGATGGCCAGGCCATGTTA; chemistry not given here)” here?
A: 1.62

Q: “Hs_GNG13_2 (sense CACGTGATTACAGTCTGTAAA; chemistry not given here)” was tested. Which Score_si2 did it give?
A: 1.42

Q: For “Hs_GNG13_3 (sense CCCACTCACAACATCTTGTAA; chemistry not given here)”, which Score_si4 is on record?
A: 0.93

Q: “Hs_GNG13_4 (sense CCCACTCACTCCATCTTGTAA; chemistry not given here)” was tested. Which Score_si3 did it give?
A: 1.13

Q: With “Hs_GP1BB_3 (sense CTGCTGCGTCTCCCTTCCAAA; chemistry not given here) [reference compound]” as the substance, how does the Score_si2 read?
A: -0.99

Q: How did the Score_si3 turn out when “Hs_GP1BB_4 (sense CGAGCTGGTGCTGACCGGCAA; chemistry not given here) [reference compound]” was run?
A: -0.68

Q: For “Hs_GP1BB_5 (sense ACGAGTCCTGAGGAGAGAA; chemistry not given here) [reference compound]”, which Score_si1 is on record?
A: -1.46

Q: Which Score_si3 does the source give for “Hs_GPS1_3 (sense CAAGTGGGCGGTGTCCATTAA; chemistry not given here)” here?
A: 1.75

Q: “Hs_GPS1_6 (sense CAGCCTGGATCTGGAACAGTA; chemistry not given here)” was tested. Which Score_si2 did it give?
A: 1.76

Q: How did the Score_si2 turn out when “Hs_GPSN2_1 (sense CTGGATCGGTTTCGCCATCAT; chemistry not given here)” was run?
A: 2.41

Q: Which Score_si1 does the source give for “Hs_GPSN2_2 (sense GTGGATGGCCTATTACATCAA; chemistry not given here)” here?
A: 2.86

Q: “Hs_GRB10_2 (sense CTACCGTATAGTAACACTGTA; chemistry not given here)” was tested. Which Score_si1 did it give?
A: 0.95

Q: Which Score_si3 does the source give for “Hs_GRB10_4 (sense GTGAATTGTTGGAGAATGTAA; chemistry not given here)” here?
A: 0.73

Q: How did the Score_si4 turn out when “Hs_GRB10_6 (sense CTAGATGACGGGAACACCAAA; chemistry not given here)” was run?
A: 0.5

Q: With “Hs_GSTP1_2 (sense CCAGATCTCCTTCGCTGACTA; chemistry not given here)” as the substance, how does the Score_si1 read?
A: 2.46

Q: For “Hs_GSTP1_3 (sense TCCTTTCTCCAGGACCAATAA; chemistry not given here)”, which Score_si4 is on record?
A: -0.14

Q: How did the Score_si3 turn out when “Hs_GSTP1_5 (sense CCTCATCTACACCAACTATGA; chemistry not given here)” was run?
A: 0.45
